Laboratory results from US7851474B2, “Dipiperazinyl ketones and related analogues” (Neurogen Corporation, priority 2005, dated 2010).

target: T1, chimeric human H3 receptor (Homo sapiens, UniProt Q9Y5N1, E19D); assay: Chimeric human H3 receptor screening GTP binding assay (inhibition of histamine-stimulated GTP-gamma35S binding, Example 8); format: biochemical; conditions: 1 h; "+" in Ki of Table II; assay of Example 8; read-out: percent inhibition of agonist-induced GTP-gammaS binding to H3
T1 construct: made in house; host or cells: Sf9 insect cells (baculovirus infection); P2 membrane preparation
Method in brief: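 Sf9 membranes co-expressing the chimeric receptor and a heterotrimeric G-protein (35 μg protein) in Tris pH 7.4 buffer with 10 μM GDP; compound at 4 μM plus 1 μM histamine, 125 pM GTP-gamma35S, 60 min at room temperature. Filter-bound radioactivity read; non-specific binding defined with 10 uM GTP-gammaS; percent inhibition of histamine signal.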

T1 sequence (Q9Y5N1 with tags, fused parts or gaps E19D): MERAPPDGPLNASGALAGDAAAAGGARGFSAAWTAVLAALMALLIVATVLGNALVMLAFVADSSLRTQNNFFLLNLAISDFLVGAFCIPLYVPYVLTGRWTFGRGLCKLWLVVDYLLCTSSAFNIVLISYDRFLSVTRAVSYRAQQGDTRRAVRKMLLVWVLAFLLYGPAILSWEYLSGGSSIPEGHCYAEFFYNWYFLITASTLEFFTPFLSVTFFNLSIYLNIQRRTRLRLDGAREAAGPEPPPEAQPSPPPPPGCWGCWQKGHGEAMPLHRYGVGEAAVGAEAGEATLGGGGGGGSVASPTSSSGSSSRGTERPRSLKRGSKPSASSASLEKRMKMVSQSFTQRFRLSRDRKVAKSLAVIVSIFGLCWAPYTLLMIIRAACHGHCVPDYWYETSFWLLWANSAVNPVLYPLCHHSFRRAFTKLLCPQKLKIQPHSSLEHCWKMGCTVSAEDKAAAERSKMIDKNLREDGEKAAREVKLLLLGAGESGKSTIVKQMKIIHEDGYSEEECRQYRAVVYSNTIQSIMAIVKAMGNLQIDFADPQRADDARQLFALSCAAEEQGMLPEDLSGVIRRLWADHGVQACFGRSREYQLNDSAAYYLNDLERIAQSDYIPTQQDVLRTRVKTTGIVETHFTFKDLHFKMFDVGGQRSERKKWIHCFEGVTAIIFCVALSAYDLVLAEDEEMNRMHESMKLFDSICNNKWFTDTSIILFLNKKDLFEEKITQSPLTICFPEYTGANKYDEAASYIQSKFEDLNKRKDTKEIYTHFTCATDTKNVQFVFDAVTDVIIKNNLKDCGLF

Row | SMILES | inhibition at 4 µM [%]
1 | O=C(CN1CCN(C(=O)c2cc(-c3ccc(Cl)cc3)oc2C(F)(F)F)CC1)N1CCN(C2CCC2)CC1 [Compound 469, 1-[5-(4-chlorophenyl)-2-(trifluoromethyl)-3-furoyl]-4-[2-(4-cyclobutylpiperazin-1-yl)-2-oxoethyl]piperazine] | > 90
2 | O=C(/C=C/c1cccc(F)c1F)N1CCN(CC(=O)N2CCN(C3CCC3)CC2)CC1 [Compound 516, 1-cyclobutyl-4-({4-[(2E)-3-(2,3-difluorophenyl)prop-2-enoyl]piperazin-1-yl}acetyl)piperazine] | > 90
3 | O=C(Cc1ccc(Oc2ccccc2)cc1)N1CCN(CC(=O)N2CCN(C3CCC3)CC2)CC1 [Compound 567, 1-cyclobutyl-4-({4-[(4-phenoxyphenyl)acetyl]piperazin-1-yl}acetyl)piperazine] | > 90
4 | COc1ccc(/C=C/C(=O)N2CCN(CC(=O)N3CCN(C4CCC4)CC3)CC2)c(OC)c1 [Compound 520, 1-cyclobutyl-4-({4-[(2E)-3-(2,4-dimethoxyphenyl)prop-2-enoyl]piperazin-1-yl}acetyl)piperazine] | > 90
5 | Cc1ccccc1CC(=O)N1CCN(CC(=O)N2CCN(C3CCC3)CC2)CC1 [Compound 539, 1-cyclobutyl-4-({4-[(2-methylphenyl)acetyl]piperazin-1-yl}acetyl)piperazine] | > 90
6 | COc1ccc(/C=C/C(=O)N2CCN(CC(=O)N3CCN(C4CCC4)CC3)CC2)c(OC)c1OC [Compound 515, 1-cyclobutyl-4-({4-[(2E)-3-(2,3,4-trimethoxyphenyl)prop-2-enoyl]piperazin-1-yl}acetyl)piperazine] | > 90
7 | COc1cscc1C(=O)N1CCN(CC(=O)N2CCN(C3CCC3)CC2)CC1 [Compound 561, 1-cyclobutyl-4-({4-[(4-methoxy-3-thienyl)carbonyl]piperazin-1-yl}acetyl)piperazine] | > 90
8 | Cc1ccccc1OCC(=O)N1CCN(CC(=O)N2CCN(C3CCC3)CC2)CC1 [Compound 538, 1-cyclobutyl-4-({4-[(2-methylphenoxy)acetyl]piperazin-1-yl}acetyl)piperazine] | > 90
9 | COc1ccc(CC(=O)N2CCN(CC(=O)N3CCN(C4CCC4)CC3)CC2)cc1OC [Compound 547, 1-cyclobutyl-4-({4-[(3,4-dimethoxyphenyl)acetyl]piperazin-1-yl}acetyl)piperazine] | > 90
10 | O=C(Cc1ccccc1F)N1CCN(CC(=O)N2CCN(C3CCC3)CC2)CC1 [Compound 534, 1-cyclobutyl-4-({4-[(2-fluorophenyl)acetyl]piperazin-1-yl}acetyl)piperazine] | > 90

same assay, conditions: 1 h; Table II "Ki", symbol "+": assay described in Example 8; read-out: percent inhibition of agonist-induced GTP-gammaS binding to H3

Row | inhibition at 4 µM [%] | SMILES
11 | > 90 | CCCOc1ccc(C(=O)N2CCN(CC(=O)N3CCN(C4CCC4)CC3)CC2)cc1 [Compound 788, 1-cyclobutyl-4-{[4-(4-propoxybenzoyl)piperazin-1-yl]acetyl}piperazine]
12 | > 90 | Cn1c(C(=O)N2CCN(CC(=O)N3CCN(C4CCC4)CC3)CC2)cc2ccccc21 [Compound 887, 2-({4-[2-(4-cyclobutylpiperazin-1-yl)-2-oxoethyl]piperazin-1-yl}carbonyl)-1-methyl-1H-indole]

same assay, conditions: 1 h; Table II, "+" in the column headed Ki; assay of Example 8; read-out: percent inhibition of agonist-induced GTP-gammaS binding to H3

Row | inhibition at 4 µM [%] | SMILES
13 | > 90 | COc1cccc(OC)c1C(=O)N1CCN(CC(=O)N2CCN(C3CCC3)CC2)CC1 [Compound 694, 1-cyclobutyl-4-{[4-(2,6-dimethoxybenzoyl)piperazin-1-yl]acetyl}piperazine]
14 | > 90 | Cc1cc(C)cc(C(=O)N2CCN(CC(=O)N3CCN(C4CCC4)CC3)CC2)c1 [Compound 742, 1-cyclobutyl-4-{[4-(3,5-dimethylbenzoyl)piperazin-1-yl]acetyl}piperazine]
15 | > 90 | O=C(CN1CCN(C(=O)c2ccccc2CCc2ccccc2)CC1)N1CCN(C2CCC2)CC1 [Compound 574, 1-cyclobutyl-4-({4-[2-(2-phenylethyl)benzoyl]piperazin-1-yl}acetyl)piperazine]
16 | > 90 | COc1ccc(OC)c(Sc2ncccc2C(=O)N2CCN(CC(=O)N3CCN(C4CCC4)CC3)CC2)c1 [Compound 659, 1-cyclobutyl-4-{[4-({2-[(2,5-dimethoxyphenyl)thio]pyridin-3-yl}carbonyl)piperazin-1-yl]acetyl}piperazine]
17 | > 90 | O=C(CN1CCN(C(=O)c2ccccc2F)CC1)N1CCN(C2CCC2)CC1 [Compound 706, 1-cyclobutyl-4-{[4-(2-fluorobenzoyl)piperazin-1-yl]acetyl}piperazine]
18 | > 90 | O=C(CN1CCN(C(=O)c2c(Cl)cccc2Cl)CC1)N1CCN(C2CCC2)CC1 [Compound 691]
19 | > 90 | O=C(/C=C/c1cccc(C(F)(F)F)c1)N1CCN(CC(=O)N2CCN(C3CCC3)CC2)CC1 [Compound 615, 1-cyclobutyl-4-[(4-{(2E)-3-[3-(trifluoromethyl)phenyl]prop-2-enoyl}piperazin-1-yl)acetyl]piperazine]
20 | > 90 | CCOc1ccc(C(=O)N2CCN(CC(=O)N3CCN(C4CCC4)CC3)CC2)cc1OCC [Compound 728, 1-cyclobutyl-4-{[4-(3,4-diethoxybenzoyl)piperazin-1-yl]acetyl}piperazine]
21 | > 90 | O=C(CN1CCN(C(=O)c2c(F)cccc2C(F)(F)F)CC1)N1CCN(C2CCC2)CC1 [Compound 582]
22 | > 90 | COc1cc(C(=O)N2CCN(CC(=O)N3CCN(C4CCC4)CC3)CC2)cc(OC)c1OC [Compound 724, 1-cyclobutyl-4-{[4-(3,4,5-trimethoxybenzoyl)piperazin-1-yl]acetyl}piperazine]
23 | > 90 | O=C(CN1CCN(C(=O)c2cccc(F)c2)CC1)N1CCN(C2CCC2)CC1 [Compound 752, 1-cyclobutyl-4-{[4-(3-fluorobenzoyl)piperazin-1-yl]acetyl}piperazine]
24 | > 90 | COc1cccc(C(=O)N2CCN(CC(=O)N3CCN(C4CCC4)CC3)CC2)c1 [Compound 757, 1-cyclobutyl-4-{[4-(3-methoxybenzoyl)piperazin-1-yl]acetyl}piperazine]

Row | SMILES | inhibition at 4 µM [%]
25 | O=C(Cc1ccccc1C(F)(F)F)N1CCN(CC(=O)N2CCN(C3CCC3)CC2)CC1 [Compound 622, 1-cyclobutyl-4-[(4-{[2-(trifluoromethyl)phenyl]acetyl}piperazin-1-yl)acetyl]piperazine] | > 90
26 | CSc1ccc(CC(=O)N2CCN(CC(=O)N3CCN(C4CCC4)CC3)CC2)cc1 [Compound 628, 1-cyclobutyl-4-[(4-{[4-(methylthio)phenyl]acetyl}piperazin-1-yl)acetyl]piperazine] | > 90
27 | O=C(Cc1cccc(C(F)(F)F)c1F)N1CCN(CC(=O)N2CCN(C3CCC3)CC2)CC1 [Compound 623, 1-cyclobutyl-4-[(4-{[2-fluoro-3-(trifluoromethyl)phenyl]acetyl}piperazin-1-yl)acetyl]piperazine] | > 90

same assay, conditions: 1 h; assay described in Example 8; symbol + in column headed Ki of Table II; read-out: percent inhibition of agonist-induced GTP-gammaS binding to H3

Row | inhibition at 4 µM [%] | SMILES
28 | > 90 | Cc1cc(C(=O)N2CCN(CC(=O)N3CCN(C4CCC4)CC3)CC2)cc(Cl)n1 [Compound 276, 1-(2-chloro-6-methylisonicotinoyl)-4-[2-(4-cyclobutylpiperazin-1-yl)-2-oxoethyl]piperazine]
29 | > 90 | O=C(CN1CCN(C(=O)c2sccc2Cl)CC1)N1CCN(C2CCC2)CC1 [Compound 398, 1-[(3-chloro-2-thienyl)carbonyl]-4-[2-(4-cyclobutylpiperazin-1-yl)-2-oxoethyl]piperazine]
30 | > 90 | O=C(CN1CCN(C(=O)c2cccnc2Sc2ccc(Cl)cc2)CC1)N1CCN(C2CCC2)CC1 [Compound 256, 1-({2-[(4-chlorophenyl)thio]pyridin-3-yl}carbonyl)-4-[2-(4-cyclobutylpiperazin-1-yl)-2-oxoethyl]piperazine]
31 | > 90 | COc1ncc(Cl)cc1C(=O)N1CCN(CC(=O)N2CCN(C3CCC3)CC2)CC1 [Compound 413, 1-[(5-chloro-2-methoxypyridin-3-yl)carbonyl]-4-[2-(4-cyclobutylpiperazin-1-yl)-2-oxoethyl]piperazine]
32 | > 90 | O=C(CN1CCN(C(=O)c2ccc(Br)s2)CC1)N1CCN(C2CCC2)CC1 [Compound 410, 1-[(5-bromo-2-thienyl)carbonyl]-4-[2-(4-cyclobutylpiperazin-1-yl)-2-oxoethyl]piperazine]
33 | > 90 | COc1cc(C(=O)N2CCN(CC(=O)N3CCN(C4CCC4)CC3)CC2)cc(Cl)n1 [Compound 275, 1-(2-chloro-6-methoxyisonicotinoyl)-4-[2-(4-cyclobutylpiperazin-1-yl)-2-oxoethyl]piperazine]

Row | SMILES | inhibition at 4 µM [%]
34 | O=C(COc1cccc(Cl)c1)N1CCN(CC(=O)N2CCN(C3CCC3)CC2)CC1 [Compound 399, 1-[(3-chlorophenoxy)acetyl]-4-[2-(4-cyclobutylpiperazin-1-yl)-2-oxoethyl]piperazine] | > 90
35 | CC(C)(C)c1ccc(OCC(=O)N2CCN(CC(=O)N3CCN(C4CCC4)CC3)CC2)cc1 [Compound 408, 1-[(4-tert-butylphenoxy)acetyl]-4-[2-(4-cyclobutylpiperazin-1-yl)-2-oxoethyl]piperazine] | > 90

same assay, conditions: 1 h; assay of Example 8; "+" in Ki of Table II; read-out: percent inhibition of agonist-induced GTP-gammaS binding to H3

Row | inhibition at 4 µM [%] | SMILES
36 | > 90 | CSc1ncc(Cl)c(C(=O)N2CCN(CC(=O)N3CCN(C4CCC4)CC3)CC2)n1 [Compound 1164, 5-chloro-4-({4-[2-(4-cyclobutylpiperazin-1-yl)-2-oxoethyl]piperazin-1-yl}carbonyl)-2-(methylthio)pyrimidine]
